# Source: US6344571B2, “Water soluble analogs and prodrugs of paclitaxel” (Pharmachemie B.V., priority 1998, dated 2002)
# “Also recorded” adds a separate entry of the source. Where two headings read alike, the source gives them in different places.
# Legend:
# [1] = system: IGROV Ovarian cancer; experiment: Antiproliferative SRB assay, IGROV; format: cell-based, human; settings: 37° C. 72 h, vs untreated cells
# From the text: (§1) Determination of the IC50-values for the new synthesized prodrugs have been determined with a variety of cell lines and have been compared with the IC50-value of paclitaxel 1 (see table II) Compounds 1, 5, 8, 11,:
# (§2) The following human tumor cell lines were used:
# (§3) Cell lines WIDR, M19 MEL, A498 and IGROV belong to the currently used anti-cancer screening panel of the National Cancer Institute, USA (Skeham et al., J. Nat. Cancer Inst. 85: 1107-1112, 1990).
# (§4) Prior to the experiments a myocoplasma test was carried out on all cell lines and found to be negative. All cell lines, except ETSA-T, were maintained in a continuous logarithmic culture in RPMI medium with Hepes and Phenol red supplemented with 10% bovine calf serum (BCS), penicillin 111 IU/ml, streptomycin 111 μg/ml, gentamycin 46 μg/ml and insulin 10.6 μg/ml. EVSA-T was maintained in DMEM with 5% BCS and antibiotics as described. The cells were mildly trypsinized for passage and for use in experiments.
# (§5) The compounds of this invention were dissolved to a concentration of 177147 ng/ml as follows:
# (§6) On day 0, 200 μl of trypsinized tumor cells (2*10^3 cells/well) were plated in 96-wells flatbottom microtiter plates (Costar, no. 3799, Badhoevedorp, The Netherlands). The plates were preincubated 24 hr at 37° C., 5% CO2 to allow the cells to adhere.
# (§7) […] The final volume of column 3 was adjusted to 200 μl with PBS. Column 2 was used for the blank. To column 1 PBS was added to diminish interfering evaporation.
# (§8) […] Subsequently the cells were fixed with 10% trichloroacetic acid in Milli Q water (Millipore, Etten Leur, The Netherlands) and placed at 4° C. for one hour.
# (§9) After five washings with tap water, the cells were stained for at least 15 min. with 0.4% SRB, dissolved in 1% acetic acid, and subsequently washed with 1% acetic acid to remove the unbound stain. The plates were air dried and the bound protein was dissolved by using 150 μl 10 mmol/l tris base. The absorbance was read at 540 nm using an automatic microplate reader (Titertec, Flow Laboratories LtD., Irvine, Scotland). Data were used for construction of concentration-response curves and determination of the IC50-value.
# [2] = system: MCF7 Breast cancer; experiment: Antiproliferative SRB assay, MCF7; format: cell-based, human; settings: 37° C. 72 h, vs untreated cells
# Protocol: as §1, §2
# (§10) MCF7 is estrogen receptor ER+/Progesterone receptor PgR+ and EVSA-T is ER-/PgR-.
# as §4, §5, §6, §7, §8, §9
# [3] = system: EVSA-T Breast cancer; experiment: Antiproliferative SRB assay, EVSA-T; format: cell-based, human; settings: 37° C. 72 h, vs untreated cells
# Protocol: as §1, §2, §10, §4, §5, §6, §7, §8, §9
# [4] = system: H226; experiment: Antiproliferative SRB assay, H226; format: cell-based, human; settings: vs untreated cells
# Protocol: as §1, §2
# […] non small cell lung cancer
# as §4, §5, §6, §7, §8, §9
# [5] = Water solubility (suspension in water or PBS-buffer, HPLC)
# Protocol: Water Solubility: Paclitaxel or paclitaxel prodrugs (5, 6, 8, 11) were suspended in water or PBS-buffer (pH 7.4) until a concentration was reached of 2 mg/ml. The suspensions were sonicated for 15 minutes and centrifuged (13000 g) for 10 minutes (Nicolaou, K. C. et al. Nature 1993, 364, 464-466). The above fluid was analyzed, using HPLC. The paclitaxel (prodrug) concentration was determined using paclitaxel standards in methanol.
# HPLC: Rheodyne injection valve (20 μl loop); Lichrospher 5RP18 column (200×3 mm, Chrompack); UV-detector (Model 759A, Applied Biosystems); eluent: CH3CN/MeOH/H2O: 5/1/4 in 10 mM NH4OAc (pH 5.0) (Willey, T. A. J. Chromatography 1993, 621, 231-238). The detection of the (pro)drugs was performed at 226 nm, where it is supposed that the extinction coefficients of paclitaxel and paclitaxel prodrugs are equal. The concentrations were determined by measuring the relative area of paclitaxel or the paclitaxel prodrugs.
# [6] = system: OVCAR-3 cells; experiment: In vitro antiproliferative effects, OVCAR-3; format: cell-based, human; settings: for IC50: 37° C. 72 h, vs untreated cells
# Protocol: The human tumor cell line OVCAR-3 was used. OVCAR is an ovarium carcinoma.
# In vitro antiproliferative effects: paclitaxel or paclitaxel prodrugs were dissolved in DMSO to give a concentration of 5 mM. Concentrations were verified by measuring the OD at 226 nm. The antiproliferative effects of drugs and prodrugs were determined with the use of OVCAR-3 cells. Cells in supplemented tissue culture medium (DMEM, 10% fetal calf serum with 50 IU/ml penicillin and 50 microgram/ml streptomycin) were seeded in triplicate in 96-well culture plates (5000/well, 100 microliter). After 24 h, 100 microliter of culture medium containing drug or prodrug was added to give final concentrations ranging from 1 picomolar to 10 micromolar.
# The cells were incubated for an additional 72 h, fixed with 10% trichoroacetic acid and stained with sulforhodamine B. The absorbance at 540 nm was read and the antiproliferative effects were expressed as IC50 values, inhibition when compared with control cell growth (Houba et al. Bioconj. Chem. 1996, 7, 606-611).
# [7] = system: M19 MEL Melanoma; experiment: Antiproliferative SRB assay, M19 MEL; format: cell-based, human; settings: vs untreated cells
# From the text: as §1, §2, §3, §4, §5, §6, §7, §8, §9
# [8] = system: A498 Renal cancer; experiment: Antiproliferative SRB assay, A498; format: cell-based, human; settings: 37° C. 72 h, vs untreated cells
# From the text: as §1, §2, §3, §4, §5, §6, §7, §8, §9
# [9] = system: WIDR Colon cancer; experiment: Antiproliferative SRB assay, WIDR; format: cell-based, human; settings: vs untreated cells
# From the text: as §1, §2, §3, §4, §5, §6, §7, §8, §9
# [10] = Stability in PBS-buffer (pH 7.4), degradation to paclitaxel; format: physicochemical; settings: for stability in PBS buffer: PBS-buffer pH 7.4
# Protocol: The paclitaxel prodrugs (5, 6, 8, 11) were dissolved in water, sonicated and centrifuged. 100 μl of the above fluid was mixed with 400 μl of plasma (heparin) or PBS-buffer (pH7.4), respectively, in such way that the concentration of the prodrug was about 0.5 mg/mL. […] After mixing for 2 minutes (using a vortex), this mixture was centrifuged (2 minutes, 13000 g) and 100 μl EtOAc was evaporated (30 minutes, in vacuo). The (pro)drugs were dissolved in 50 μl eluent and analyzed by HPLC (Longnecker, S. M. Cancer Treat Rep. 1987, 71, 53-59). The efficiency for the extraction of paclitaxel was about 80%.
# [11] = Stability in human plasma, degradation to paclitaxel; format: in vitro ADME; settings: for T1/2 Human Plasma: human plasma (heparin), 37° C., time in which 50% of the analog is degraded to paclitaxel
# Protocol: The paclitaxel prodrugs (5, 6, 8, 11) were dissolved in water, sonicated and centrifuged. 100 μl of the above fluid was mixed with 400 μl of plasma (heparin) or PBS-buffer (pH7.4), respectively, in such way that the concentration of the prodrug was about 0.5 mg/mL. The plasma or PBS-buffer, respectively, was incubated at 37° C. and on different points in time (T=0, 0.5, 1, 4, 20, 48 hours) 50 μl was extracted with 150 μl of EtOAc. After mixing for 2 minutes (using a vortex), this mixture was centrifuged (2 minutes, 13000 g) and 100 μl EtOAc was evaporated (30 minutes, in vacuo). The (pro)drugs were dissolved in 50 μl eluent and analyzed by HPLC (Longnecker, S. M. Cancer Treat Rep. 1987, 71, 53-59). The efficiency for the extraction of paclitaxel was about 80%.
# [12] = system: human tumor cell lines; experiment: Cytotoxic activity in human tumor cell lines, overall comparison with paclitaxel; format: cell-based
# Protocol: as §1, §2, §6
# On day 2, 100 μl of the highest drug concentration was added to the wells of column 12 and from there diluted 3-fold to column 3 by serial transfer of 100 μl using an 8 channel micropipette. The final volume of column 3 was adjusted to 200 μl with PBS. Column 2 was used for the blank. To column 1 PBS was added to diminish interfering evaporation.
# On day 7 the incubation was terminated by washing the plates twice with PBS. […]
# After five washings with tap water, the cells were stained for at least 15 min. with 0.4% SRB, dissolved in 1% acetic acid, and subsequently washed with 1% acetic acid to remove the unbound stain. […] The absorbance was read at 540 nm using an automatic microplate reader (Titertec, Flow Laboratories LtD., Irvine, Scotland). […]
Compound,IC50 IGROV [1] [µg/mL],IC50 MCF7 [2] [µg/mL],IC50 EVSA-T [3] [µg/mL],IC50 H226 [4] [µg/mL],"Water Solubility ([5]; suspended to 2 mg/ml, sonicated 15 minutes, centrifuged, HPLC) [µg/mL]",IC50 [6] [nM],IC50 M19 MEL [7] [µg/mL],IC50 A498 [8] [µg/mL],IC50 WIDR [9] [µg/mL],stability in PBS buffer [10],degradation to paclitaxel in human plasma [11],T1/2 Human Plasma [11],"amount degraded to paclitaxel within 4 hours ([11]; within 4 hours, matrix not printed in the sentence (human plasma per Table I))",Water Solubility [5] [µg/mL],water solubility compared with paclitaxel [5],water solubility relative to paclitaxel (times more watersoluble) [5],activity against OVCAR-3 cells compared to paclitaxel [6],"paclitaxel detected in PBS-buffer after 24 hours ([10]; PBS-buffer pH 7.4, after 24 hours)",cytotoxic activity compared to paclitaxel [12]
"CC(=O)O[C@H]1C(=O)[C@@]2(C)[C@H]([C@H](OC(=O)c3ccccc3)[C@]3(O)C[C@H](OC(=O)[C@H](O)[C@@H](NC(=O)c4ccccc4)c4ccccc4)C(C)=C1C3(C)C)[C@]1(OC(C)=O)CO[C@@H]1C[C@@H]2O [paclitaxel, Paclitaxel]",0.033,<0.003,<0.003,<0.003,10,0.25,<0.003,0.005,<0.003,,,,,,,,,,
"CC(=O)O[C@H]1C(=O)[C@@]2(C)[C@H]([C@H](OC(=O)c3ccccc3)[C@]3(O)C[C@H](OC(=O)[C@H](OC(=O)CC(O)C(=O)[O-])[C@@H](NC(=O)c4ccccc4)c4ccccc4)C(C)=C1C3(C)C)[C@]1(OC(C)=O)CO[C@@H]1C[C@@H]2O.[Na+] (stereo partly drawn) [Compound 6, Sodium salt of 2′-malylpaclitaxel]",0.233,<0.003,<0.003,<0.003,,0.8,<0.003,<0.003,<0.003,sufficient stability,fast hydrolysis rate,4 h,about 500,600,Best water solubility,sixty,comparable,,
"CC(=O)O[C@H]1C(=O)[C@@]2(C)[C@H]([C@H](OC(=O)c3ccccc3)[C@]3(O)C[C@H](OC(=O)[C@H](OC(=O)CC(O)C(=O)O)[C@@H](NC(=O)c4ccccc4)c4ccccc4)C(C)=C1C3(C)C)[C@]1(OC(C)=O)CO[C@@H]1C[C@@H]2O (stereo partly drawn) [Compound 5, 2′-Malylpaclitaxel]",<0.003,<0.003,<0.003,0.01,,,0.003,0.039,<0.003,sufficient stability; also recorded: stable,,20 h,,200,,,,only traces,
"CC(=O)O[C@H]1C(=O)[C@]2(C)[C@@H](OC(=O)CC(O)C(=O)O)C[C@H]3OC[C@@]3(OC(C)=O)[C@H]2[C@H](OC(=O)c2ccccc2)[C@]2(O)C[C@H](OC(=O)[C@H](O)[C@@H](NC(=O)c3ccccc3)c3ccccc3)C(C)=C1C2(C)C (stereo partly drawn) [Compound 11, 7-Malylpaclitaxel]",0.241,0.39,0.3,0.706,,,1.344,1.435,0.589,sufficient stability; also recorded: no degradation to the parent drug,no degradation to the parent drug,no pacl.^b,,3,,,,,reduced cytotoxic activity
"CC(=O)OC1C(=O)C2(C)C(OC(=O)CC(O)C(=O)O)CC3OCC3(OC(C)=O)C2C(OC(=O)c2ccccc2)C2(O)CC(OC(=O)C(OC(=O)CC(O)C(=O)O)C(NC(=O)c3ccccc3)c3ccccc3)C(C)=C1C2(C)C (stereo not drawn) [Compound 8, 2′, 7-Bis(malyl)paclitaxel]",0.049,0.069,0.059,0.241,,,0.311,0.436,0.167,sufficient stability; also recorded: no degradation to the parent drug,no degradation to the parent drug,no pacl.^b,,500,,,,,reduced cytotoxic activity
